Assay results: ChEMBL document CHEMBL5543113, “Amphiphilic α-Peptoid-deoxynojirimycin Conjugate-based Multivalent Glycosidase Inhibitor for Hypoglycemic Effect and Fluorescence Imaging” (J Med Chem, 2024)
pKi: −log10 of the molar value. Calls of active or inactive are those of the source. No cut-off for these calls is given here.

How the values were obtained:
[1] = Inhibition of Aspergillus niger Alpha-glucosidase incubated for 10 mins by Lineweaver-Burk plot analysis
[2] = Inhibition of rice Alpha-glucosidase incubated for 10 mins by Lineweaver-Burk plot analysis; parameters: species or system Oryza sativa
[3] = test system: Aspergillus niger; assay: Potency index, ratio of miglitol Ki to test compound Ki for inhibition of Aspergillus niger Alpha-glucosidase incubated for 10 mins by Lineweaver-Burk plot analysis
[4] = test system: Mus musculus; assay: Hypoglycemic activity in C57BL/6J mouse assessed as molar reduction in PBG level at 1.6 mg/kg, po co-administered with maltose and measured after 30 mins by glucometer relative to control; type: functional; parameters: scale not given: the % may be the effect or the level left; conditions: 0.5 h
[5] = test system: Mus musculus; assay: Hypoglycemic activity in C57BL/6J mouse assessed as blood glucose level at 0.4 mg/kg, po co-administered with maltose and measured after 15 mins by glucometer (380.8 +/- 20.6 mg/dl); type: functional; conditions: 0.25 h
[6] = test system: Mus musculus; assay: Hypoglycemic activity in C57BL/6J mouse assessed as blood glucose level at 1.6 mg/kg, po co-administered with maltose and measured after 15 mins by glucometer (380.8 +/- 20.6 mg/dL); type: functional; conditions: 0.25 h
[7] = test system: Mus musculus; assay: Hypoglycemic activity in C57BL/6J mouse assessed as blood glucose level at 0.8 mg/kg, po co-administered with maltose and measured after 30 mins by glucometer (380.8 +/- 20.6 mg/dL); type: functional; conditions: 0.5 h
[8] = test system: Mus musculus; assay: Hypoglycemic activity in C57BL/6J mouse assessed as blood glucose level at 1.6 mg/kg, po co-administered with maltose and measured after 30 mins by glucometer (380.8 +/- 20.6 mg/dL); type: functional; conditions: 0.5 h
[9] = test system: Mus musculus; assay: Hypoglycemic activity in C57BL/6J mouse assessed as decrease in PBG level at 0.4 mg/kg, po co-administered with maltose and measured after 15 mins by glucometer relative to control; type: functional; parameters: scale not given: the % may be the effect or the level left; conditions: 0.25 h
[10] = test system: Mus musculus; assay: Hypoglycemic activity in C57BL/6J mouse assessed as decrease in PBG level at 0.8 mg/kg, po co-administered with maltose and measured after 15 mins by glucometer relative to control; type: functional; parameters: scale not given: the % may be the effect or the level left; conditions: 0.25 h
[11] = test system: Mus musculus; assay: Hypoglycemic activity in C57BL/6J mouse assessed as decrease in PBG level at 0.4 mg/kg, po co-administered with maltose and measured after 30 mins by glucometer relative to control; type: functional; parameters: scale not given: the % may be the effect or the level left; conditions: 0.5 h
[12] = test system: Mus musculus; assay: Hypoglycemic activity in C57BL/6J mouse assessed as decrease in PBG level at 1.6 mg/kg, po co-administered with maltose and measured after 30 mins by glucometer relative to control; type: functional; parameters: scale not given: the % may be the effect or the level left; conditions: 0.5 h
[13] = test system: Mus musculus; assay: Relative hypoglycemic rate in C57BL/6J mouse assessed as reduction in PBG level by measuring fold change at 1.6 mg/kg, po co-administered with maltose and measured after 30 mins by glucometer relative to miglitol; type: functional; conditions: 0.5 h
[14] = test system: Mus musculus; assay: Relative hypoglycemic rate in C57BL/6J mouse assessed as molar reduction in PBG level by measuring fold change at 1.6 mg/kg, po co-administered with maltose and measured after 30 mins by glucometer relative to miglitol; type: functional; conditions: 0.5 h
[15] = Toxicity in C57BL/6J mouse assessed as effect on kidney morphology at 1.6 mg/kg, po co-administered with maltose for 7 days by Hematoxylin and eosin staining based analysis; type: organism-based; conditions: in vivo, 168 h, time 7 day
[16] = test system: Mus musculus; assay: Hypoglycemic activity in KKAy diabetic mouse model assessed as blood glucose level at 1.6 mg/kg, po co-administered with maltose and measured after 30 mins by glucometer (reference value: 582.6 +/- 22.9 mg/dl); type: functional; conditions: 0.5 h
[17] = test system: Mus musculus; assay: Hypoglycemic activity in KKAy diabetic mouse model assessed as blood glucose level at 1.6 mg/kg, po co-administered with maltose and measured after 60 mins by glucometer (reference value: 582.6 +/- 22.9 mg/dl); type: functional; conditions: 1 h
[18] = test system: Mus musculus; assay: Hypoglycemic activity in KKAy diabetic mouse model assessed as decrease in PBG level at 1.6 mg/kg, po co-administered with maltose and measured after 15 mins by glucometer relative to control; type: functional; parameters: scale not given: the % may be the effect or the level left; conditions: 0.25 h
[19] = test system: Mus musculus; assay: Hypoglycemic activity in KKAy diabetic mouse model assessed as decrease in PBG level at 1.6 mg/kg, po co-administered with maltose and measured after 30 mins by glucometer relative to control; type: functional; parameters: scale not given: the % may be the effect or the level left; conditions: 0.5 h
[20] = test system: Mus musculus; assay: Relative hypoglycemic rate in KKAy diabetic mouse model assessed as molar reduction in PBG level by measuring fold change at 1.6 mg/kg, po co-administered with maltose and measured after 30 mins by glucometer relative to miglitol; type: functional; conditions: 0.5 h
[21] = Self assembly property of the compound in water assessed as mean diameter at 1 x 10^-4 M by dynamic light scattering spectrometric analysis; type: physicochemical; conditions: buffer, 100 µM; dose 1 10^-4M
[22] = Self assembly property of the compound in water assessed as diameter at 1 x 10^-4 M by transmission electron microscopic analysis; type: physicochemical; conditions: buffer, 100 µM; dose 1 10^-4M
[23] = Self assembly property of compound in citric acid-phosphate buffer at pH 2 to 7 at 1 x 10^-4 M assessed as diameter by dynamic light scattering spectrometric analysis; type: physicochemical; conditions: pH 2, 100 µM, dose 1 10^-4M
[24] = Self assembly property of the compound assessed as diameter at 5 x 10^-5 mol/L by dynamic light scattering spectrometric analysis; type: physicochemical; conditions: 50 µM; dose 5 10^-5mol/L
[25] = Self assembly property of the compound assessed as diameter at 1 x 10^-4 mol/L by dynamic light scattering spectrometric analysis; type: physicochemical; conditions: 100 µM; dose 1 10^-4mol/L
[26] = Self assembly property of compound assessed as Nilered-compound complex formation by measuring increase in fluorescence intensity by Nile red dye based fluorescence analysis; type: physicochemical
[27] = test system: Mus musculus; assay: Binding affinity to mouse alpha-glucosidase assessed as fluorescence intensity at 2 x 10^-4 M administered as Nile red complex by fluorescence spectra analysis (reference value: 3586); conditions: dose 2.0 10^-4M
[28] = Binding affinity to mouse alpha-glucosidase assessed as binding constant administered as Nile red complex by fluorescence spectra analysis
[29] = test system: Mus musculus; assay: Binding affinity to mouse alpha-glucosidase assessed as decrease in fluorescence intensity at 200 uM administered as Nile red complex in presence of miglitol by fluorescence spectra analysis
[30] = Binding affinity to mouse alpha-glucosidase assessed as miglitol binding constant at 200 uM administered as Nile red complex in presence of miglitol by fluorescence spectra analysis
[31] = Stability of compound assessed as fluorescence intensity at 2 x 10^-4 M administered as Nile red complex at pH 1.0 to 7.0 by fluorescence spectra analysis 9Rvb = 3548); type: physicochemical; conditions: pH 1, 200 µM; dose 2 10^-4M
[32] = Drug uptake in C57/6J mouse small intestine assessed as increase in fluorescence at 5 x 10^-5M, po administered as Nile red complex and measured upto 2 hrs by fluorescence imaging analysis; type: ADME, organism-based; conditions: in vivo, dose 5 10^-5M
[33] = Drug uptake in C57/6J mouse heart assessed as increase in fluorescence at 5 x 10^-5M, po administered as Nile red complex and measured after 4 hrs by fluorescence imaging analysis; type: ADME, organism-based; conditions: in vivo, dose 5 10^-5M
[34] = Drug uptake in C57/6J mouse liver assessed as increase in fluorescence at 5 x 10^-5M, po administered as Nile red complex and measured after 4 hrs by fluorescence imaging analysis; type: ADME, organism-based; conditions: in vivo, dose 5 10^-5M

With `CCCCCCCCCCCCCCCCCCNC(=O)CN(Cc1cn(CCCCCCN2C[C@H](O)[C@@H](O)[C@H](O)[C@H]2CO)nn1)C(=O)CN(Cc1cn(CCCCCCN2C[C@H](O)[C@@H](O)[C@H](O)[C@H]2CO)nn1)C(=O)CN(Cc1cn(CCCCCCN2C[C@H](O)[C@@H](O)[C@H](O)[C@H]2CO)nn1)C(=O)CN(Cc1cn(CCCCCCN2C[C@H](O)[C@@H](O)[C@H](O)[C@H]2CO)nn1)C(C)=O` the pKi [1] was 6.77, the pKi [2] was 7.57 and the Ratio Ki [3] was 121. It also gave an Activity [4] of 11.5%, an Activity [5] of 347.8 mg/dL and an Activity [6] of 302.04 mg/dL. The Activity [7] was 287.6 mg/dL, the Activity [8] was 230.4 mg/dL and the Activity [9] was 6.5%. The Activity [10] was 12.2%, the Activity [11] was 18.6% and the Activity [12] was 39.5%. The “fold change (FC)” value [13] was 1.8, the “fold change (FC)” value [14] was 4 and the Activity [15] was “Non-Toxic”. For the same molecule, the Activity [16] was 419.7 mg/dL, the Activity [17] was 432.6 mg/dL and the Activity [18] was 6.6%. For the same molecule, the Activity [19] was 26.2%, the “fold change (FC)” value [20] was 6.9 and the Activity [21] was 283 nm. The Activity [22] was 96 nm, the Activity [23] was 138 nm and the Activity [24] was 233 nm. For the same molecule, the Activity [25] was 276 nm, the Activity [26] was “Dose-Dependent Effect” and the Flu intensity [27] was 1750. The Ka [28] was 5680 M⁻¹, the Activity [29] was “inactive” and the Ka [30] was 205 M⁻¹. For the same molecule, the Flu intensity [31] was 1001, the Drug uptake [32] was “Active” and the Drug uptake [33] was “Not Active”. For the same molecule, the Drug uptake [34] was “Not Active”.
